Results from US12616751B2, “Photosensitizing antibody-fluorophore conjugates” (The USA, as represented by the Secretary, Department of …, priority 2010, dated 2026).

Tests used:
[1] = test system: A431 tumors; assay: Histological analysis immediately after PIT; assay type: in vivo, mice
[2] = test system: A431 cells; assay: Fluorescence microscopy of Pan-IR700 in A431 cells; assay type: cell-based; conditions: after 24 h incubation
Procedure: EGFR-expressing A431 cells were used as the target HER1+ cells. […] Cells were grown in RPMI 1640 supplemented with 10% fetal bovine serum and 1% penicillin/streptomycin in tissue culture flasks in a humidified incubator at 37° C. in an atmosphere of 95% air and 5% carbon dioxide. A431 or Balb/3T3/DsRed cells were seeded on cover glass-bottomed dishes and incubated for 24 hours. Pan-IR700 was added to the culture medium at 10 μg/mL and incubated either for 1 hour on ice or 6 hours at 37° C., then cells were washed with PBS. Culture medium was replaced with phenol red-free medium after washing with phosphate buffered saline (PBS).
Fluorescence microscopy was performed as described in Example 2 to detect the antigen-specific localization of IR700.
Reagents. […] The protein concentrations were determined with Coomassie Plus protein assay kit (Pierce Biotechnology) by measuring light absorption at 595 nm (8453 Value System; Agilent Technologies). […] Quenching efficiency (QE) for a particular conjugation is defined as the fluorescence intensity with SDS divided by fluorescence intensity without SDS. […] Fluorescence lifetime measurements. […] Lifetime values and lifetime mapping were calculated to fit fluorescence temporal point-spread functions (TPSFs) as single-exponential models with the Fit TPSF tool. […] Power densities were measured with an optical power meter (PM 100, Thorlabs). […]

[3] = test system: A431 (HER1+) tumors; assay: In vivo PIT efficacy in A431 tumors
Procedure: To determine the effect of Pan-IR700 or carrier alone followed by PIT, the following methods were used. […] Four days after A431 cell injection as described above, tumor volume reaching around 40 mm^3 were selected for the study. […] To test a short-term toxicity, 300 μg of Pan-IR700 was repeatedly administrated intravenously for non-tumor-bearing mice, twice a week, for 4 weeks.

Pan-IR700: Panitumumab (anti-human EGFR IgG2 MAb) conjugated to IR700; about 3 to 4 IR700 per antibody
necrosis (H-E histology) ([1]; 10 J/cm^2): necrotic cell damage was found in only limited areas
necrosis (H-E histology) ([1]; 30 or 50 J/cm^2): Necrotic damage was diffuse and intense
cell damage following exposure to NIR light [2]: immediate damage was induced in the cell membranes and lysosomes
tumor shrinkage of irradiated tumor ([3]; 300 μg, NIR light on day 1): Tumor shrinkage was confirmed on day 7
survival time ([3]; 30 J cm^−2): significant increases in survival time
tumor growth ([3]; 30 J cm^−2, day 3, 7, 10, 14 and 17 after treatment): significant tumor growth inhibition
lethal side effects ([3]; during or after the treatment): no lethal side effects were found
antitumor activity, 50 μg versus 300 μg ([3]; following irradiation): less antitumor activity
pathological analysis of tumor ([3]; four days following PIT): only scant viable A431 tumor cells were present
day at which PIT treated tumors began to shrink ([3]; mouse, in vivo): 2 days
tissue edema ([3]; mouse, in vivo): tissue edema developed superficially
